From ChEMBL document CHEMBL1201862, “PubChem BioAssay data set” (2004)
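Assay format: 96-well plates, 48-hour exposure. At the GI50, growth is halved.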 Activity calls are given as the source filed them. Rule as the data show it: active = GI50 up to about 1.1 µM and inactive = higher. Residues, ends and D or L forms follow the SMILES beside them. *: point of attachment. Pentanoyl = CCCCC(=O)*; Boc = CC(C)(C)OC(=O)*

Experiments:
Assay in all cases: DTP human tumour cell line panel, 48 h
A498 = test system: A498
EKVX = test system: EKVX
HOP-62 = test system: HOP-62
HOP-92 = test system: HOP-92
HT-29 = test system: HT-29
IGROV-1 = test system: IGROV-1
MCF7 = test system: MCF7
MDA-MB-231 = test system: MDA-MB-231
NCI-H226 = test system: NCI-H226
NCI-H522 = test system: NCI-H522
OVCAR-5 = test system: OVCAR-5
PC-3 = test system: PC-3
RPMI-8226 = test system: RPMI-8226
SF-268 = test system: SF-268
SK-MEL-5 = test system: SK-MEL-5
SNB-75 = test system: SNB-75
T47D = test system: T47D
UACC-257 = test system: UACC-257
UO-31 = test system: UO-31
SR = test system: SR

SMILES | GI50 (A498) | GI50 (EKVX) | GI50 (HOP-62) | GI50 (HOP-92) | GI50 (HT-29) | GI50 (IGROV-1) | GI50 (MCF7) | GI50 (MDA-MB-231) | GI50 (NCI-H226) | GI50 (NCI-H522) | GI50 (OVCAR-5) | GI50 (PC-3) | GI50 (RPMI-8226) | GI50 (SF-268) | GI50 (SK-MEL-5) | GI50 (SNB-75) | GI50 (T47D) | GI50 (UACC-257) | GI50 (UO-31) | GI50 (SR)
N#Cc1cc(-c2nc3c(F)cccc3s2)ccc1N | > 100 µM (inactive) | < 0.01 µM (active) | > 100 µM (inactive) | 3.52 µM (inactive) | > 100 µM (inactive) | 6.1 µM (inactive) | 0.133 µM (active) | > 100 µM (inactive) | > 100 µM (inactive) | > 100 µM (inactive) | > 100 µM (inactive) | > 100 µM (inactive) | > 100 µM (inactive) | > 100 µM (inactive) | 56.4 µM (inactive) | > 100 µM (inactive) | 0.912 µM (active) | > 100 µM (inactive) | > 100 µM (inactive) | 
Nc1ccc(Oc2ccc(C34CC5CC(C3)CC(c3ccc(Oc6ccc(N)cc6C(F)(F)F)cc3)(C5)C4)cc2)c(C(F)(F)F)c1 | 18.3 µM (inactive) | 15.5 µM (inactive) | 18.2 µM (inactive) |  | 17.2 µM (inactive) | 19.5 µM (inactive) | 13.4 µM (inactive) | 15.2 µM (inactive) | 19.4 µM (inactive) | 14.4 µM (inactive) | 27 µM (inactive) | 14.8 µM (inactive) |  | 17.4 µM (inactive) | 22 µM (inactive) |  | 15.1 µM (inactive) | 18.7 µM (inactive) | 39.1 µM (inactive) | 
CN(C)c1ccc(/C=C2\N=C(N/N=C/c3ccccc3)NC2=O)cc1 | > 100 µM (inactive) | > 100 µM (inactive) | > 100 µM (inactive) | 26.4 µM (inactive) | 40.6 µM (inactive) | 44.9 µM (inactive) | 56.1 µM (inactive) | > 100 µM (inactive) | > 100 µM (inactive) | 32.2 µM (inactive) | > 100 µM (inactive) | 75.3 µM (inactive) | 28.8 µM (inactive) | 66.5 µM (inactive) | 41.1 µM (inactive) | 81.1 µM (inactive) | 56.4 µM (inactive) | > 100 µM (inactive) | > 100 µM (inactive) | 
Cc1c(C)c2c(c(N)c1C#N)C(=O)N(Nc1ccccc1)C2=O |  | 43.9 µM (inactive) |  | 28.5 µM (inactive) |  | 42.7 µM (inactive) | 60.1 µM (inactive) | 31.9 µM (inactive) | 61.2 µM (inactive) | 29.2 µM (inactive) | > 100 µM (inactive) | 57.3 µM (inactive) | > 100 µM (inactive) | 40.8 µM (inactive) | > 100 µM (inactive) | 30.6 µM (inactive) | 9.95 µM (inactive) | 81.8 µM (inactive) | 78.5 µM (inactive) | 66.1 µM (inactive)
NC(CCC(=O)O)C(=O)N1CCN(c2nc(N3CCCC3)c3nc(Cl)c(NCc4ccccc4)nc3n2)CC1 (stereo unspecified) |  | 13.8 µM (inactive) | 13.2 µM (inactive) | 15.8 µM (inactive) | 9.95 µM (inactive) | 21.2 µM (inactive) | 7.24 µM (inactive) | 14.4 µM (inactive) | 12.3 µM (inactive) | 14.8 µM (inactive) | 18.7 µM (inactive) | 13.3 µM (inactive) | 5.79 µM (inactive) | 13.1 µM (inactive) | 8.04 µM (inactive) | 12 µM (inactive) | 6.64 µM (inactive) | 14.5 µM (inactive) | 9.29 µM (inactive) | 3.68 µM (inactive)
O=C(/C=C/c1ccccc1)/C=N/N1C(=S)N(c2ccccc2)C(=N\c2ccccc2)/C1=N/c1ccccc1 |  | > 100 µM (inactive) | > 100 µM (inactive) | > 100 µM (inactive) | > 100 µM (inactive) | > 100 µM (inactive) | 33 µM (inactive) | > 100 µM (inactive) | > 100 µM (inactive) | 11.2 µM (inactive) | > 100 µM (inactive) | > 100 µM (inactive) | > 100 µM (inactive) | > 100 µM (inactive) | > 100 µM (inactive) |  | > 100 µM (inactive) | > 100 µM (inactive) | > 100 µM (inactive) | > 100 µM (inactive)
ClC(Cl)(Cl)C1CCOC1n1nnc2ccccc21 (stereo unspecified) | > 100 µM (inactive) | > 100 µM (inactive) | > 100 µM (inactive) |  | 73.5 µM (inactive) | > 100 µM (inactive) | > 100 µM (inactive) | > 100 µM (inactive) | > 100 µM (inactive) | 82.4 µM (inactive) | > 100 µM (inactive) | > 100 µM (inactive) |  | > 100 µM (inactive) | 45.2 µM (inactive) | 1.2 µM (inactive) | > 100 µM (inactive) | > 100 µM (inactive) |  | 
S=c1c2cn[nH]c2nc2scc(-c3ccc(Cl)cc3)n12 |  | 17.3 µM (inactive) | 16.9 µM (inactive) |  | 16.7 µM (inactive) | > 10 µM (inactive) | 18.5 µM (inactive) | 17 µM (inactive) |  | 24.9 µM (inactive) | 14.3 µM (inactive) | 12.9 µM (inactive) | 23.6 µM (inactive) | 16.6 µM (inactive) | 17.6 µM (inactive) | 13.9 µM (inactive) | > 10 µM (inactive) | 54.6 µM (inactive) | 6.24 µM (inactive) | 12.1 µM (inactive)
CC1CC[C@@]2(OC1)OC1CC3C4CCC5C[C@@H](OC6OC(CO)C(OC7OC(CO)C(O)C(OC8OC(CO)C(O)C(OC9OC(CO)C(O)C(O)C9O)C8O)C7OC7OC(CO)C(O)C(O)C7O)C(O)C6O)[C@H](O)C[C@]5(C)C4CC[C@]3(C)C1[C@@H]2C (stereo partly specified) | > 80.5 µM (inactive) | > 80.5 µM (inactive) | > 80.5 µM (inactive) | > 80.5 µM (inactive) | > 80.5 µM (inactive) |  | > 80.5 µM (inactive) | > 80.5 µM (inactive) | > 80.5 µM (inactive) |  | > 80.5 µM (inactive) | > 80.5 µM (inactive) |  | > 80.5 µM (inactive) | > 80.5 µM (inactive) | > 80.5 µM (inactive) | > 80.5 µM (inactive) | > 80.5 µM (inactive) |  | 
CCCCC(=O)Oc1ccc(CC(NC(=O)OC(C)(C)C)C(=O)NC(C)C(=O)NC(Cc2ccccc2)C(=O)NCC(N)=O)cc1 (stereo unspecified) (Boc-Y(Pentanoyl)AFG-NH2; configuration not given here) | > 100 µM (inactive) |  | 17.3 µM (inactive) | 16.2 µM (inactive) | 19.4 µM (inactive) | 19.7 µM (inactive) | 20.5 µM (inactive) | 20 µM (inactive) | > 100 µM (inactive) | 18.8 µM (inactive) | 21.9 µM (inactive) | 43.9 µM (inactive) | 21.2 µM (inactive) | 31.6 µM (inactive) | 70 µM (inactive) | 45.5 µM (inactive) | 27.4 µM (inactive) | 27.7 µM (inactive) | > 100 µM (inactive) | 
Cc1ccc(O)cc1.Cc1cccc(O)c1.Cc1ccccc1O [CRESOL] | > 100 µM (inactive) | > 100 µM (inactive) | > 100 µM (inactive) |  | > 100 µM (inactive) | 88.9 µM (inactive) | > 100 µM (inactive) | > 100 µM (inactive) | 85.9 µM (inactive) | 8.34 µM (inactive) | > 100 µM (inactive) | 73.3 µM (inactive) | > 100 µM (inactive) | > 100 µM (inactive) | > 100 µM (inactive) |  | > 100 µM (inactive) | > 100 µM (inactive) | > 100 µM (inactive) | 
